Data as given in patent US10597388B2, “Pyridazinone herbicides” (FMC CORPORATION, priority 2014, dated 2020).

How the values were obtained:
Format in all cases: in vivo
[1] = system: barnyardgrass (Echinochloa crus-galli); test: Test A greenhouse herbicide test, pre- and postemergence
How it was run: (§1)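 Visual injury ratings, 0 (no effect) to 100 (complete control), versus untreated plants after roughly 10 d in a greenhouse. Compounds, formulated in a surfactant-containing non-phytotoxic solvent, were sprayed on loam–sand soil after sowing (pre) or on one- to two-leaf plants 2–10 cm tall (post).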

[2] = system: kochia (Kochia scoparia); test: as above
How it was run: as §1

[3] = system: corn (Zea mays); test: Test C greenhouse herbicide test, pre- and postemergence
How it was run: (§2)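 Visual 0–100 injury score (100 = complete control) taken against untreated controls after 13–15 d in greenhouse. Test chemicals, formulated in solvent plus surfactant, applied preemergence to seeds in loam–sand soil or postemergence to 1- to 4-leaf plants (2–18 cm).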

[4] = system: crabgrass, large (large crabgrass, Digitaria sanguinalis); test: as above
How it was run: as §2

[5] = system: foxtail, giant (giant foxtail, Setaria faberii); test: as above
How it was run: as §2

[6] = system: johnsongrass (Sorghum halepense); test: as above
How it was run: as §2

[7] = system: lambsquarters (Chenopodium album); test: as above
How it was run: as §2

[8] = system: morningglory (Ipomoea coccinea); test: as above
How it was run: as §2

[9] = system: oilseed rape (Brassica napus); test: as above
How it was run: as §2

[10] = system: waterhemp (common waterhemp, Amaranthus rudis); test: as above
How it was run: as §2

[11] = system: wheat (winter wheat, Triticum aestivum); test: as above
How it was run: as §2

[12] = Postemergence, 125 g ai/ha, visual rating after approx. 10 d, 0 to 100 scale (0 no effect, 100 complete control)
[13] = Postemergence, 500 g ai/ha, 0 to 100 scale, 0 is no effect, 100 is complete control
[14] = Preemergence, 125 g ai/ha, 0 to 100 scale where 0 is no effect and 100 is complete control
[15] = Preemergence, 500 g ai/ha, 0 to 100 scale, 0 no effect, 100 complete control
[16] = Postemergence, 31 g ai/ha, 0 to 100 scale (0 no effect, 100 complete control)
[17] = Postemergence, 125 g ai/ha, scale 0 to 100, 0 is no effect, 100 is complete control
[18] = Postemergence, 250 g ai/ha, scale 0 to 100, 0 no effect, 100 complete control, 13 to 15 d
[19] = Preemergence, 31 g ai/ha, scale 0 to 100, 0 is no effect, 100 is complete control
[20] = Preemergence, 62 g ai/ha, scale 0 to 100, 0 is no effect, 100 is complete control
[21] = Preemergence, 125 g ai/ha, scale 0 to 100, 0 is no effect, 100 is complete control
[22] = Preemergence, 250 g ai/ha, scale 0 to 100, 0 no effect, 100 complete control
[23] = postemergence, 62 g ai/ha, scale 0 to 100, 0 no effect, 100 complete control

Cn1nc(Br)c(O)c(-c2cccc3ccccc23)c1=O [Compound 20]
Plant response rating, Barnyardgrass [1, 12]: 30 | Barnyardgrass plant response rating [1, 13]: 100 | Barnyardgrass plant response rating [1, 14]: 30 | Plant response rating, Barnyardgrass [1, 15]: 90 | Plant response rating, Kochia [2, 12]: 90 | Kochia plant response rating [2, 13]: 100 | Kochia plant response rating [2, 14]: 80 | Plant response rating, Kochia [2, 15]: 100 | Corn plant response rating [3, 16]: 5 | Plant response rating, Corn [3, 17]: 5 | Plant response rating, Corn [3, 18]: 10 | Plant response rating, Corn [3, 19]: 0 | Plant response rating, Corn [3, 20]: 0 | Plant response rating, Corn [3, 21]: 5 | Corn plant response rating [3, 22]: 35 | Corn plant response rating [3, 23]: 5 | Crabgrass, Large plant response rating [4, 16]: 5 | Plant response rating, Crabgrass, Large [4, 17]: 10 | Plant response rating, Crabgrass, Large [4, 18]: 30 | Plant response rating, Crabgrass, Large [4, 19]: 10 | Plant response rating, Crabgrass, Large [4, 20]: 15 | Plant response rating, Crabgrass, Large [4, 21]: 15 | Crabgrass, Large plant response rating [4, 22]: 60 | Crabgrass, Large plant response rating [4, 23]: 10 | Foxtail, Giant plant response rating [5, 16]: 0 | Plant response rating, Foxtail, Giant [5, 17]: 45 | Plant response rating, Foxtail, Giant [5, 18]: 80 | Plant response rating, Foxtail, Giant [5, 19]: 5 | Plant response rating, Foxtail, Giant [5, 20]: 30 | Plant response rating, Foxtail, Giant [5, 21]: 65 | Foxtail, Giant plant response rating [5, 22]: 85 | Foxtail, Giant plant response rating [5, 23]: 25 | Johnsongrass plant response rating [6, 16]: 5 | Plant response rating, Johnsongrass [6, 17]: 10 | Plant response rating, Johnsongrass [6, 18]: 10 | Plant response rating, Johnsongrass [6, 19]: 0 | Plant response rating, Johnsongrass [6, 20]: 0 | Plant response rating, Johnsongrass [6, 21]: 0 | Johnsongrass plant response rating [6, 22]: 10 | Johnsongrass plant response rating [6, 23]: 10 | Lambsquarters plant response rating [7, 16]: 80 | Plant response rating, Lambsquarters [7, 17]: 100 | Plant response rating, Lambsquarters [7, 18]: 100 | Plant response rating, Lambsquarters [7, 19]: 80 | Plant response rating, Lambsquarters [7, 20]: 85 | Plant response rating, Lambsquarters [7, 21]: 85 | Lambsquarters plant response rating [7, 22]: 90 | Lambsquarters plant response rating [7, 23]: 85 | Morningglory plant response rating [8, 16]: 100 | Plant response rating, Morningglory [8, 17]: 100 | Plant response rating, Morningglory [8, 18]: 100 | Plant response rating, Morningglory [8, 19]: 85 | Plant response rating, Morningglory [8, 20]: 98 | Plant response rating, Morningglory [8, 21]: 98 | Morningglory plant response rating [8, 22]: 100 | Morningglory plant response rating [8, 23]: 100 | Oilseed Rape plant response rating [9, 16]: 0 | Plant response rating, Oilseed Rape [9, 17]: 5 | Plant response rating, Oilseed Rape [9, 18]: 25 | Plant response rating, Oilseed Rape [9, 19]: 0 | Plant response rating, Oilseed Rape [9, 20]: 0 | Plant response rating, Oilseed Rape [9, 21]: 0 | Oilseed Rape plant response rating [9, 22]: 20 | Oilseed Rape plant response rating [9, 23]: 0 | Waterhemp plant response rating [10, 16]: 70 | Plant response rating, Waterhemp [10, 17]: 60 | Plant response rating, Waterhemp [10, 18]: 90 | Plant response rating, Waterhemp [10, 20]: 100 | Plant response rating, Waterhemp [10, 21]: 100 | Waterhemp plant response rating [10, 22]: 100 | Waterhemp plant response rating [10, 23]: 40 | Wheat plant response rating [11, 16]: 0 | Plant response rating, Wheat [11, 17]: 0 | Plant response rating, Wheat [11, 18]: 0 | Plant response rating, Wheat [11, 20]: 0 | Plant response rating, Wheat [11, 21]: 35 | Wheat plant response rating [11, 22]: 30 | Wheat plant response rating [11, 23]: 0
